How the values were obtained:
[1] = test system: CHO cells; experiment: Intracellular UTP and UDP-galactose in CHO cells fed uridine or galactose; type: cell-based, Chinese hamster
Method: CHO cells were incubated under standard tissue culture technique in the presence and absence of 1 to 20 mM uridine for 18 hours and tested for UTP concentrations using a method similar to Ryll and Wagner. Quantified data from the 0, 1, 2, 5, 10 and 20 mM uridine cultures were plotted as a function of normalized intracellular UTP concentrations. Alternatively, CHO Cells were cultured in the presence of 0.2 mM uridine or 11 mM galactose and tested for UTP concentrations using the method of Ryll and Wagner.

[2] = test system: CHO cell line that produces aCD20; experiment: Galactose content of aCD20 MAb from CHO cells cultured with uridine (capillary electrophoresis); type: cell-based, Chinese hamster; details: 0.5 to 1.0 mM uridine for 7 days; FIG. 10
Method: A CHO cell line that produces a recombinant glycoprotein, monoclonal antibody (MAb) aCD20, was cultured in the presence and absence of 0.5 to 1.0 mM uridine for a period of 7 days. Secreted aCD20 MAb was purified by immunoaffinity using the method of Ma & Nashabeh. Ma & Mashabeh (1999) Analytical Chemistry 71(22):5185-92. Purified aCD20 was tested for galactose content using the capillary electrophoresis method of Ma & Nashabeh and plotted as a percent galactose content.

[3] = test system: CPS II; experiment: CPS II activity in PALA resistant CHO cells; type: cell-based, Chinese hamster; details: CHO B cell line, selected with 3 mM PALA; FIG. 3
Method: CHO DP12 and CHO DG44 parental cell lines and CHO DP12 expressing TNFR-IgG and anti-CD11a were cultivated with and without P-phosphonacytyl-L-aspartate (PALA). As shown schematically in FIG. 2, each cell line was plated at 10% confluency in 10 cm petri dishes using standard tissue culture techniques. Cells were cultured in serum containing medium having 0.1 mM PALA. The culture medium was changed weekly. Surviving clones were pooled and sub-cultivated in increasing concentrations of PALA until the target PALA concentration was reached, i.e., 2-10 mM PALA. After selection for the PALA phenotype (see below), cells were either passed into a PALA containing medium or to a PALA free medium and further cultivated in suspension spinner flasks. Spinner flask cell populations were sub-cultivated every 4-7 days. Cells selected in the presence of PALA are referred to as PALA-resistant cells, cells cultivated in the same manner as above but not treated with PALA will be referred to as control cells.
CHO cells treated with 3 mM PALA were analyzed for CPS II activity, an indicator of overall CAD activity, using the method generally described in Mori and Tatibana. […] Two PALA resistant CHO sub-cultures were analyzed, CHO-A and CHO-B, to ensure that results were uniform to the PALA resistant phenotype and not particular to a sub-population of treated cells.

[4] = test system: CAD mRNA; experiment: CAD mRNA expression by RNase protection assay in PALA selected cells; type: cell-based; details: TRY cells selected under 2 mM PALA; FIG. 4
Method: CAD expression was measured on PALA resistant cells using a RNase protection assay similar to the method described in Mahler and McGuire. Mahler and McGuire (1990), J. Clin. Invest., 86: 1641-1648. In particular, TRY cells were selected under 2 mM PALA and CAD mRNA expression measured using a RNase protection assay.

[5] = test system: CHO cells; experiment: Intracellular nucleotides and nucleotide sugars (HPLC) in PALA resistant CHO cells; type: cell-based, Chinese hamster; details: FIG. 6
Method: CHO cells were treated in 5 mM PALA, cell extracts were prepared and nucleotides measured using a method similar to Ryll and Wagner. Ryll and Wagner (1991) J. Chromatography, 570:77-88. The experiment was performed over a time course of 10 to 90 days and data quantified and plotted as UTP content of PALA resistant cells relative to control cells.
Further, PALA resistant CHO DP12 cells expressing TNFR-IgG were seeded at 4×10^6 cells per ml in spinner flask cultures and incubated at 31° C. and 6 mM butyrate for 6 days. The cell culture supernatant was harvested and TNFR-IgG recovered by a method of protein A immunoaffinity chromatography as is well known in the art. N-linked glycans were analyzed by MALDI mass spectrometry using the method generally described by Papac et al., (1996) Anal. Chem., 68:3215-3223. Sialic acid content of the TNFR-IgG was determined using were analyzed using the method generally described by Anumula, (1995) Anal. Biochem., 230, 24-30.

[6] = 0.2 mM uridine or 11 mM galactose, FIG. 8

Row | Compound | intracellular UTP levels [1, 6] | intracellular UDP-galactose levels ([1]; 11 mM galactose, FIG. 8) | intracellular UTP levels ([1]; 1 to 20 mM uridine for 18 hours, FIG. 7) | galactose content of aCD20 MAb versus non-uridine treated control cells [2] | increase in CPS II activity as compared to control CHO cells [3] | increase in CAD mRNA as compared to control cells [4] | increase in UTP content as compared to control cells ([5]; CHO cells treated in 5 mM PALA, time course of 10 to 90 days) | increase in UDP-galactose content as compared to control cells ([5]; PALA resistant CHO cells, period of at least 90 days)
1 | O=C[C@H](O)[C@@H](O)[C@@H](O)[C@H](O)CO [galactose] | does not increase UTP levels | does increase UDP-galactose levels |  |  |  |  |  | 
2 | O=c1ccn([C@@H]2O[C@H](CO)[C@@H](O)[C@H]2O)c(=O)[nH]1 [uridine] | dramatic increase in UTP levels |  | increases UTP levels within the cell in a dose dependent manner | much higher galactose content |  |  |  | 
3 | O=C(O)C[C@H](NC(=O)CP(=O)(O)O)C(=O)O [PALA, N-phosphonacetyl-L-aspartate] |  |  |  |  | twenty | two | 200-350% | 200-350%
